Data set [1] has as its system poly I:C stimulated Calu 3 cells. The data set can be described thus: Gene expression (qPCR) in poly I:C stimulated Calu3 cells. Format: cell-based. The note with it: 10 ug/ml poly IC 24 h, 20 uM LG 48 h. How it is done: (§1) FIG. 2A-B are a series of graphs depicting broad spectrum anti-viral and anti-inflammatory activity of LG. Histograms showing mRNA expression assessed by qPCR. A) Effect of LG on poly I:C (P I:C) stimulated Calu 3 cells with or without LG treatment, B) Anti-inflammatory effect of LG treatment in NL63 infected Calu 3 cells. Cells were collected 48 hrs of post infection (PI) with NL63 virus (0.1 MOI) (C, Control) and treated with LG (20 uM) (T, Treatment), n=3, Data expressed as mean±SEM, * Compared to NL63, *p<0.05, **p<0.005, ***p<0.0005.
(§2) To examine whether LG has broad spectrum antiviral activity, Calu3 cells are stimulated with 10 ug/ml poly IC for 24 h, treated with 20 uM LG for 48 h, and then RNA was isolated for gene expression analyses. […] Further the inventors examined the effect of LG on the Calu3 lung cells infected with human coronavirus NL63.

For a further data set, the system named is WA strain. Description: Plaque assay, WA strain. The format is cell-based, SARS-CoV-2.
In data set [2] the test system is mouse coronavirus MHV-A59-GFP. Description: microbe, parasite or virus in culture. The note with it: read-out: inhibition of infection.
Data set [3] has as its system icSARS-CoV-2nMG (CoV2-GFP). The format is cell-based, SARS-CoV-2.
Another data set deals with Delta strain. Description: Plaque assay, Delta strain. The format is cell-based, SARS-CoV-2.
The target in a further data set is T1, RBD-ACE2 interaction (Severe acute respiratory syndrome coronavirus 2, UniProt P0DTC2).
T1 construct: purchased Genscript
Format: binding. As to conditions: compared to the negative control.

The subject of data set [4] is mouse coronavirus (MHV), K18 hACE2 transgenic mouse, and mouse adapted coronavirus (MA10) infection models.
For the next data set, the system named is human coronavirus NL63. The data set can be described thus: Gene expression (qPCR) in NL63 infected Calu3 cells. Format: cell-based. As to conditions: NL63 0.1 MOI, LG 20 uM, 48 hrs PI. How it is done:
as §1, §2

Data set [5] deals with mouse coronavirus MHV-A59-GFP.
In another data set the test system is icSARS-CoV-2nMG. The format is cell-based, SARS-CoV-2.

Results on two compounds are retold here after patent publication US20240065983A1, “COMPOSITION AND METHOD FOR TREATING COVID-19” (University of South Florida, priority 2021, published 2024).

With `CC(O)c1ccc(CCOc2ccc(CC3SC(=O)NC3=O)cc2)nc1` (stereo not drawn) [LG, leriglitazone], in data set [1], the “expression of IL-6, IL1β, IFNγ, TNFα, NFkB, NLRP3” value is “inhibits expression”; the “expression of IL-10 and PPARγ” value is “increases expression”. Further, the “reduction in plaque titers” value in the data set with WA strain is reported as more than 2 log. Moreover, the inhibition at 20 µM in [2] is more than 70%. Also, the CoV2 infection entry in data set [3] is reported as “dose-dependent decrease of CoV2 infection”. For the same compound, in data set [3] (LG 20 uM, WA strain, Caco2), the “infected GFP-positive cells” value is “significant reduction in infected GFP-positive cells”. Moreover, the “reduction in plaque titers” value in the data set on Delta strain is reported as more than 2 log. Also, the “interference of RBD-ACE2 interaction” value on RBD-ACE2 interaction is “significantly inhibited the RBD-ACE2 interaction in a dose-dependent manner”. The “efficacy in in vivo studies” value in data set [4] is recorded as more than 70%. Besides, the “expression of anti-inflammatory genes at transcript level” value in the data set with human coronavirus NL63 is on record as “altered expression of anti-inflammatory genes at the transcript level similar to that found in poly-IC experiment”. In addition, the “cell killing (bright field images)” value in [5] (20 uM LG, DBT cells) is given as “without killing the cells”. In addition, the “inhibition of coronavirus infection (dose dependence)” value in data set [5] (DBT cells, GFP) is “inhibited coronavirus infection in a dose-dependent fashion”. Moreover, in [5] (LG 20 uM vs Remdesvir 10 nM), the “reduction in infection versus Remdesvir” value was “significantly higher reduction in infection”. The N transcript entry in data set [5] (LG 20 uM, compared to vehicle control) is recorded as “significant reduction in N transcript”.

`CCCCC/C=C\C/C=C\CCCCCCCC(=O)O` [LLA, linoleic acid]: in the data set with icSARS-CoV-2nMG, the “viral infection as seen by N gene expression” value is reported as “significantly decreased viral infection”.
